pEC50: −log10 of the molar value.
target: STING (Homo sapiens, UniProt Q86WV6, G230A/H232R/R293Q/R71H); test: STING reporter assay: THP1-Dual KO-IFNAR2 cells stimulated with 2′3′cGAMP, luciferase reporter activity; assay type: cell-based; conditions: 15 μM 2′3′cGAMP, 24h, class symbols
How it was run: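 THP1-Dual KO-IFNAR2 cells (2×10E6 cells/mL) treated with compounds at 0.0017-100 μM, then stimulated with 2′3′cGAMP (15 μM final) delivered by Lipofectamine 2000; 24 h at 37° C. Supernatant luciferase read by QUANTI-Luc Plus luminescence; EC50 from dose-response.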

STING, sequence (Q86WV6 whole entry R71H/G230A/H232R/R293Q): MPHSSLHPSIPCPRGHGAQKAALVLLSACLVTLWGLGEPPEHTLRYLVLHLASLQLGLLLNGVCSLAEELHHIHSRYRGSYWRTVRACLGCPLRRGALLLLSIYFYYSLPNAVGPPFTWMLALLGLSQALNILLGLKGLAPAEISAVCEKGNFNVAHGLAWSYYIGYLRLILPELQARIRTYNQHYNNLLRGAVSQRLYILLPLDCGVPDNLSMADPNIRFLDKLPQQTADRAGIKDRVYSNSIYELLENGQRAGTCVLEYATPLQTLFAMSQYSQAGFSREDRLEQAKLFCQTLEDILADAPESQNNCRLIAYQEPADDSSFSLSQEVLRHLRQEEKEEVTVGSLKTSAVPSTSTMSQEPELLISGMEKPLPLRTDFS

`O=C(Nc1cccc(OC(F)F)c1)Nc1ccc2[nH]ccc2c1` [Compound 343] and `O=C(Nc1cccc(C(F)(F)F)c1)Nc1ccc2[nH]ccc2c1` [Compound 374] fall in the same range of pEC50: 4.00 to 5.30 for the first, 4.00 to 5.30 for the second.

`O=C(Nc1ccc(C(F)(F)F)cc1)Nc1ccc2[nH]cc(-c3cn[nH]c3)c2c1` [Compound 345] and `N#Cc1cc2cc(NC(=O)Nc3ccc(C(F)(F)F)cc3)ccc2[nH]1` [Compound 370] fall in the same range of pEC50: 4.00 to 5.30 for the first, 4.00 to 5.30 for the second.

Compared with `O=C(Nc1ccc(C(F)(F)F)cc1)Nc1ccc2[nH]cc(NC(=O)Nc3ccc(C(F)(F)F)cc3)c2c1` [Compound 371], `CN(C(=O)Nc1ccc(C(F)(F)F)cc1)c1ccc2[nH]ccc2c1` [Compound 376] is lower in pEC50: 6.00 to 6.70 for the first, 4.00 to 5.30 for the second. The first is the more potent here.

`CCCCc1ccc(NC(=O)Nc2ccc3[nH]ccc3c2)cc1` [Compound 378] and `CCc1ccc2ccc(Nc3ccc4cc[nH]c4c3)nc2c1` [Compound 385] fall in the same range of pEC50: 5.30 to 6.00 for the first, 5.30 to 6.00 for the second.

Compared with `FC(F)(F)c1ccc2ccc(Nc3ccc4cc[nH]c4c3)nc2c1` [Compound 381], `FC(F)(F)c1ccc2cnc(Nc3ccc4cc[nH]c4c3)cc2c1` [Compound 388] is lower in pEC50: 6.00 to 6.70 for the first, 5.30 to 6.00 for the second. The first is the more potent here.

`N#Cc1cc(Nc2ccc3ccc(C(F)(F)F)cc3n2)cc2[nH]ccc12` [Compound 384] and `Cc1cc(Nc2ccc3ccc(Cl)cc3n2)cc2[nH]ccc12` [Compound 387] fall in the same range of pEC50: 5.30 to 6.00 for the first, 5.30 to 6.00 for the second.

`c1cc2ccc(Nc3ccc4ccc(C5CCC5)cc4n3)cc2[nH]1` [Compound 386] and `c1cc2ccc(Nc3ccc4ccc(C5CCCCC5)cc4n3)cc2[nH]1` [Compound 389, 7-cyclohexyl-N-(1H-indol-6-yl)quinolin-2-amine] fall in the same range of pEC50: 5.30 to 6.00 for the first, 5.30 to 6.00 for the second.

First: COc1nc(Nc2ccc3cc[nH]c3c2)ccc1F [Compound 391, N-(5-fluoro-6-methoxypyridin-2-yl)-1H-indol-6-amine]
Second: FC(F)(F)c1nc(Nc2ccc3cc[nH]c3c2)ccc1Cl [Compound 405, N-(5-chloro-6-(trifluoromethyl)pyridin-2-yl)-1H-indol-6-amine]
The pEC50 of the first is lower: 4.00 to 5.30 for the first, 6.00 to 6.70 for the second.

`FC(F)(F)COc1cccc(Nc2ccc3cc[nH]c3c2)n1` [Compound 396, N-(6-(2,2,2-trifluoroethoxy)pyridin-2-yl)-1H-indol-6-amine] and `FC(F)(F)Cc1ccc(Nc2ccc3cc[nH]c3c2)nc1` [Compound 408, N-(5-(2,2,2-trifluoroethyl)pyridin-2-yl)-1H-indol-6-amine] fall in the same range of pEC50: 4.00 to 5.30 for the first, 4.00 to 5.30 for the second.

First: c1ccc(-c2ccnc(Nc3ccc4cc[nH]c4c3)c2)cc1 [Compound 401, N-(4-phenylpyridin-2-yl)-1H-indol-6-amine]
Second: CC(C)(C)c1ccnc(Nc2ccc3cc[nH]c3c2)c1 [Compound 402, N-(4-(tert-butyl)pyridin-2-yl)-1H-indol-6-amine]
The pEC50 of the first is higher: 5.30 to 6.00 for the first, 4.00 to 5.30 for the second. The first is the more potent here.

`FC(F)(F)Oc1ccc(Nc2ccc3cc[nH]c3c2)nc1` [Compound 403, N-(5-(trifluoromethoxy)pyridin-2-yl)-1H-indol-6-amine] and `CCOCc1ccc(Nc2ccc3cc[nH]c3c2)nc1` [Compound 412, N-(5-(ethoxymethyl)pyridin-2-yl)-1H-indol-6-amine] fall in the same range of pEC50: 4.00 to 5.30 for the first, 4.00 to 5.30 for the second.

With `CC(C)c1cccc(Nc2ccc3cc[nH]c3c2)n1` [Compound 406, N-(6-isopropylpyridin-2-yl)-1H-indol-6-amine] the pEC50 was 4.00 to 5.30.

same assay, conditions: 15 μM 2′3′cGAMP, 24h, numeric bounds

`O=C(NCc1ccc(F)c(F)c1)Nc1ccc2[nH]ccc2c1` [Compound 336] and `O=C(Nc1ccc(F)c(F)c1)Nc1ccc2[nH]ccc2c1` [Compound 342] cannot be ordered by pEC50: under 4.52 for the first, under 4.52 for the second.

`Cc1ccc(CNC(=O)Nc2ccc3[nH]ccc3c2)cc1C` [Compound 337] and `Cc1ccc(CCNC(=O)Nc2ccc3[nH]ccc3c2)cc1C` [Compound 356] cannot be ordered by pEC50: under 4.52 for the first, under 4.52 for the second.

`Cc1ccccc1CNC(=O)Nc1ccc2[nH]ccc2c1` [Compound 338] and `Cc1ccccc1NC(=O)Nc1ccc2[nH]ccc2c1` [Compound 365] cannot be ordered by pEC50: under 4.52 for the first, under 4.52 for the second.

`Cc1ccc(CNC(=O)Nc2ccc3[nH]ccc3c2)cc1` [Compound 339] and `Cc1cccc(CNC(=O)Nc2ccc3[nH]ccc3c2)c1` [Compound 340] cannot be ordered by pEC50: under 4.52 for the first, under 4.52 for the second.

`O=C(Nc1ccc(Cl)c(F)c1)Nc1ccc2[nH]ccc2c1` [Compound 341] and `Cc1cc(NC(=O)Nc2ccc3[nH]ccc3c2)ccc1C#N` [Compound 360] cannot be ordered by pEC50: under 4.52 for the first, under 4.52 for the second.

`O=C(Nc1cccc(S(F)(F)(F)(F)F)c1)Nc1ccc2[nH]ccc2c1` [Compound 346] and `O=C(Nc1ccc2[nH]ccc2c1)Nc1ccccc1Cl` [Compound 362] cannot be ordered by pEC50: under 4.52 for the first, under 4.52 for the second.

`CC(C)c1ccc(NC(=O)Nc2ccc3[nH]ccc3c2)cc1` [Compound 347] and `N#Cc1ccc(NC(=O)Nc2ccc3[nH]ccc3c2)cc1` [Compound 361] cannot be ordered by pEC50: under 4.52 for the first, under 4.52 for the second.

`CCCCCCCCCCCCCCCCNC(=O)Nc1ccc2[nH]ccc2c1` [Compound 348] and `CCCCCCCCCCCCCCNC(=O)Nc1ccc2[nH]ccc2c1` [Compound 351] cannot be ordered by pEC50: under 4.52 for the first, under 4.52 for the second.

`O=C(NCCSCc1c(Cl)cccc1Cl)Nc1ccc2[nH]ccc2c1` [Compound 349] and `O=C(NCCc1ccccc1Cl)Nc1ccc2[nH]ccc2c1` [Compound 355] cannot be ordered by pEC50: under 4.52 for the first, under 4.52 for the second.

`O=C(NCc1csc(-c2ccc(Cl)cc2)n1)Nc1ccc2[nH]ccc2c1` [Compound 350] and `O=C(NCCc1cccc(Cl)c1)Nc1ccc2[nH]ccc2c1` [Compound 354] cannot be ordered by pEC50: under 4.52 for the first, under 4.52 for the second.

`CCCCCCCCc1ccc(NC(=O)Nc2ccc3[nH]ccc3c2)cc1` [Compound 352] and `O=C(NCCc1ccc(Br)cc1)Nc1ccc2[nH]ccc2c1` [Compound 353] cannot be ordered by pEC50: under 4.52 for the first, under 4.52 for the second.

`O=C(Nc1ccc2[nH]ccc2c1)NC1Cc2ccccc2C1` [Compound 357] and `O=C(Nc1ccc2[nH]ccc2c1)Nc1ccccc1F` [Compound 364] cannot be ordered by pEC50: under 4.52 for the first, under 4.52 for the second.

`CC[C@H](NC(=O)Nc1ccc2[nH]ccc2c1)c1ccccc1` [Compound 358] and `CCc1ccccc1NC(=O)Nc1ccc2[nH]ccc2c1` [Compound 363, 1-(2-ethylphenyl)-3-(1H-indol-5-yl)urea] cannot be ordered by pEC50: under 4.52 for the first, under 4.52 for the second.

`O=C(Nc1ccc2c(c1)CCC2)Nc1ccc2[nH]ccc2c1` [Compound 359] and `N#Cc1c[nH]c2ccc(NC(=O)Nc3ccc(C(F)(F)F)cc3)cc12` [Compound 373] cannot be ordered by pEC50: under 4.52 for the first, under 4.00 for the second.

`Cn1cc(-c2c[nH]c3ccc(NC(=O)Nc4ccc(C(F)(F)F)cc4)cc23)cn1` [Compound 366] and `Cn1ccc2cc(NC(=O)Nc3ccc(C(F)(F)F)cc3)ccc21` [Compound 377] cannot be ordered by pEC50: under 4.52 for the first, under 4.00 for the second.

`CCCCC1CCC(NC(=O)Nc2ccc3[nH]c(Cl)cc3c2)CC1` (stereo not shown) [Compound 372] and `CCCCC1CCC(NC(=O)Nc2ccc3[nH]c(C)cc3c2)CC1` (stereo not shown) [Compound 375] cannot be ordered by pEC50: under 4.00 for the first, under 4.00 for the second.

`CCCCC1CCC(NC(=O)Nc2ccc3[nH]ccc3c2)CC1` (stereo not shown) [Compound 379] and `c1cnc(Nc2ccc3cc[nH]c3c2)c(C2CC2)c1` [Compound 394, N-(3-cyclopropylpyridin-2-yl)-1H-indol-6-amine] cannot be ordered by pEC50: under 5.30 for the first, under 4.52 for the second.

`CCc1ccnc(Nc2ccc3cc[nH]c3c2)c1` [Compound 392, N-(4-ethylpyridin-2-yl)-1H-indol-6-amine] and `CC(C)c1ccnc(Nc2ccc3cc[nH]c3c2)c1` [Compound 393, N-(4-isopropylpyridin-2-yl)-1H-indol-6-amine] cannot be ordered by pEC50: under 4.52 for the first, under 4.52 for the second.

`CC(O)c1ccnc(Nc2ccc3cc[nH]c3c2)c1` (stereo not shown) [Compound 395, 1-(2-((1H-indol-6-yl)amino)pyridin-4-yl)ethanol] and `CC(F)(F)c1ccnc(Nc2ccc3cc[nH]c3c2)c1` [Compound 416, N-(4-(1,1-difluoroethyl)pyridin-2-yl)-1H-indol-6-amine] cannot be ordered by pEC50: under 4.52 for the first, under 4.52 for the second.

`c1cc(Nc2ccc3cc[nH]c3c2)nc(N2CCCC2)c1` [Compound 397, N-(6-(pyrrolidin-1-yl)pyridin-2-yl)-1H-indol-6-amine] and `CCNc1cccc(Nc2ccc3cc[nH]c3c2)n1` [Compound 398, N2-ethyl-N6-(1H-indol-6-yl)pyridine-2,6-diamine] cannot be ordered by pEC50: under 4.52 for the first, under 4.52 for the second.

`Cc1nc(Nc2ccc3cc[nH]c3c2)ccc1Br` [Compound 399, N-(5-bromo-6-methylpyridin-2-yl)-1H-indol-6-amine] and `c1cc2ccc(Nc3ccc(C4CC4)cn3)cc2[nH]1` [Compound 411, N-(5-cyclopropylpyridin-2-yl)-1H-indol-6-amine] cannot be ordered by pEC50: under 4.52 for the first, under 4.52 for the second.

`OCc1cccnc1Nc1ccc2cc[nH]c2c1` [Compound 400, (2-((1H-indol-6-yl)amino)pyridin-3-yl)methanol] and `c1cnc2c(Nc3ccc4cc[nH]c4c3)nccc2c1` [Compound 407, N-(1H-indol-6-yl)-1,7-naphthyridin-8-amine] cannot be ordered by pEC50: under 4.52 for the first, under 4.52 for the second.

`c1cc2nccnc2c(Nc2ccc3cc[nH]c3c2)n1` [Compound 404, N-(1H-indol-6-yl)pyrido[3,4-b]pyrazin-5-amine] and `c1cc2ccnc(Nc3ccc4cc[nH]c4c3)c2cn1` [Compound 415, N-(1H-indol-6-yl)-2,7-naphthyridin-1-amine] cannot be ordered by pEC50: under 4.52 for the first, under 4.52 for the second.

`FC(F)(F)Oc1cccc(Nc2ccc3cc[nH]c3c2)n1` [Compound 409, N-(6-(trifluoromethoxy)pyridin-2-yl)-1H-indol-6-amine] and `FC(F)(F)COc1ccnc(Nc2ccc3cc[nH]c3c2)n1` [Compound 410, N-(4-(2,2,2-trifluoroethoxy)pyrimidin-2-yl)-1H-indol-6-amine] cannot be ordered by pEC50: under 4.52 for the first, under 4.52 for the second.

`FC(F)Oc1ccc(Nc2ccc3cc[nH]c3c2)nc1` [Compound 413, N-(5-(difluoromethoxy)pyridin-2-yl)-1H-indol-6-amine] and `CN1CCC(COc2cnc(Nc3ccc4cc[nH]c4c3)nc2)CC1` [Compound 414, N-(5-((1-methylpiperidin-4-yl)methoxy)pyrimidin-2-yl)-1H-indol-6-amine] cannot be ordered by pEC50: under 4.52 for the first, under 4.52 for the second.

— US20230092163A1, “COMPOUNDS AND COMPOSITIONS FOR TREATING CONDITIONS ASSOCIATED WITH STING ACTIVITY” (IFM Due, Inc., priority 2019, published 2023)
